≈ marks a conversion by molar mass, not a printed value.
Tests used:
S.marcescens C1052 = assay: In vitro antibacterial activity, minimum inhibitory concentration; assay type: cell-based; details: Serratia marcescens; S.marcescens C1052; read-out: Minimum Inhibitory Concentration (MIC)
Description: (§1) As reference compounds, Cefotaxime (CTX), Ceftazidime (CAZ) and Cefpirome (CPR) were employed.

E.coli C4002 = assay: as above; assay type: cell-based; details: Escherichia coli; E.coli C4002; read-out: Minimum Inhibitory Concentration (MIC)
Description: as §1

P.rettgeri ATCC9919 = assay: as above; assay type: cell-based; details: Providencia rettgeri; P.rettgeri ATCC9919; read-out: Minimum Inhibitory Concentration (MIC)
Description: as §1

P.aeruginosa ATCC10145 = assay: as above; assay type: cell-based; details: Pseudomonas aeruginosa; P.aeruginosa ATCC10145; read-out: Minimum Inhibitory Concentration (MIC)
Description: as §1

K.oxytoca C4022 = assay: as above; assay type: cell-based; details: Klebsiella oxytoca; K.oxytoca C4022; read-out: Minimum Inhibitory Concentration (MIC)
Description: as §1

P.aeruginosa C4070 = assay: as above; assay type: cell-based; details: Pseudomonas aeruginosa; P.aeruginosa C4070; read-out: Minimum Inhibitory Concentration (MIC)
Description: as §1

E.cloacae C4009 = assay: as above; assay type: cell-based; details: Enterobacter cloacae; E.cloacae C4009; read-out: Minimum Inhibitory Concentration (MIC)
Description: as §1

S.aureus C4036 = assay: as above; assay type: cell-based; details: Staphylococcus aureus; S.aureus C4036; read-out: Minimum Inhibitory Concentration (MIC)
Description: as §1

S.marcescens ATCC27117 = assay: as above; assay type: cell-based; details: Serratia marcescens; S.marcescens ATCC27117; read-out: Minimum Inhibitory Concentration (MIC)
Description: as §1

S.aureus ATCC29213 = assay: as above; assay type: cell-based; details: Staphylococcus aureus; S.aureus ATCC29213; read-out: Minimum Inhibitory Concentration (MIC)
Description: as §1

K.pneumoniae C1040 = assay: as above; assay type: cell-based; details: Klebsiella pneumoniae; K.pneumoniae C1040; read-out: Minimum Inhibitory Concentration (MIC)
Description: as §1

E.cloacae C4008 = assay: as above; assay type: cell-based; details: Enterobacter cloacae; E.cloacae C4008; read-out: Minimum Inhibitory Concentration (MIC)
Description: as §1

S.pyogenes ATCC 8668 = assay: as above; assay type: cell-based; details: Streptococcus pyogenes, ATCC8668; S.pyogenes ATCC 8668; read-out: Minimum Inhibitory Concentration (MIC)
Description: as §1

P.aeruginosa C2027 = assay: as above; assay type: cell-based; details: Pseudomonas aeruginosa; P.aeruginosa C2027; read-out: Minimum Inhibitory Concentration (MIC)
Description: as §1

E.coli ATCC25922 = assay: as above; assay type: cell-based; details: Escherichia coli; E.coli ATCC25922; read-out: Minimum Inhibitory Concentration (MIC)
Description: as §1

S.pyogenes C4003 = assay: as above; assay type: cell-based; details: Streptococcus pyogenes; S.pyogenes C4003; read-out: Minimum Inhibitory Concentration (MIC)
Description: as §1

S.aureus Smith = assay: as above; assay type: cell-based; details: Staphylococcus aureus; S.aureus Smith; read-out: Minimum Inhibitory Concentration (MIC)
Description: as §1

MRSA C2208 = assay: as above; assay type: cell-based; details: Staphylococcus aureus; MRSA C2208; read-out: Minimum Inhibitory Concentration (MIC)
Description: as §1

P.aeruginosa ATCC27853 = assay: as above; assay type: cell-based; details: Pseudomonas aeruginosa; P.aeruginosa ATCC27853; read-out: Minimum Inhibitory Concentration (MIC)
Description: as §1

E.coli ATCC10536 = assay: as above; assay type: cell-based; details: Escherichia coli; E.coli ATCC10536; read-out: Minimum Inhibitory Concentration (MIC)
Description: as §1

S.Faecalis ATCC29212 = assay: as above; assay type: cell-based; details: Enterococcus faecalis
Description: as §1

S.typhimurium C4045 = assay: as above; assay type: cell-based; details: Salmonella enterica; S.typhimurium C4045; read-out: Minimum Inhibitory Concentration (MIC)
Description: as §1

P.mirabilis ATCC25933 = assay: as above; assay type: cell-based; details: Proteus mirabilis; P.mirabilis ATCC25933; read-out: Minimum Inhibitory Concentration (MIC)
Description: as §1

K.pneumoniae ATCC10031 = assay: as above; assay type: cell-based; details: Klebsiella pneumoniae; K.pneumoniae ATCC10031; read-out: Minimum Inhibitory Concentration (MIC)
Description: as §1

S.epidermidis ATCC12228 = assay: as above; assay type: cell-based; details: Staphylococcus epidermidis; S.epidermidis ATCC12228; read-out: Minimum Inhibitory Concentration (MIC)
Description: as §1

[1] = Pharmacokinetics (plasma half-life); assay type: in vivo; details: SD Rat, mean value, read-out: Half-Life (T1/2)
Method: In order to investigate the pharmacokinetics properties of the compounds according to the present invention, the plasma half-life was determined in accordance with the method described in Antimicrobial Agents and Chemotherapy, 26(2), p.

MIC (S.marcescens C1052) [µg/mL]	MIC (E.coli C4002) [µg/mL]	MIC (P.rettgeri ATCC9919) [µg/mL]	MIC (P.aeruginosa ATCC10145) [µg/mL]	MIC (K.oxytoca C4022) [µg/mL]	MIC (P.aeruginosa C4070) [µg/mL]	MIC (E.cloacae C4009) [µg/mL]	MIC (S.aureus C4036) [µg/mL]	MIC (S.marcescens ATCC27117) [µg/mL]	MIC (S.aureus ATCC29213) [µg/mL]	MIC (K.pneumoniae C1040) [µg/mL]	MIC (E.cloacae C4008) [µg/mL]	MIC (S.pyogenes ATCC 8668) [µg/mL]	MIC (P.aeruginosa C2027) [µg/mL]	MIC (E.coli ATCC25922) [µg/mL]	MIC (S.pyogenes C4003) [µg/mL]	MIC (S.aureus Smith) [µg/mL]	MIC (MRSA C2208) [µg/mL]	MIC (P.aeruginosa ATCC27853) [µg/mL]	MIC (E.coli ATCC10536) [µg/mL]	SMILES	also measured
0.025 (≈ 0.047 µM)	0.007 (≈ 0.0132 µM)	0.007 (≈ 0.0132 µM)	1.56 (≈ 2.93 µM)	0.78 (≈ 1.47 µM)	1.56 (≈ 2.93 µM)	0.007 (≈ 0.0132 µM)	1.56 (≈ 2.93 µM)	0.007 (≈ 0.0132 µM)	1.56 (≈ 2.93 µM)	0.004 (≈ 0.00753 µM)	0.002 (≈ 0.00376 µM)	0.013 (≈ 0.0245 µM)	0.78 (≈ 1.47 µM)	0.013 (≈ 0.0245 µM)	0.013 (≈ 0.0245 µM)	1.56 (≈ 2.93 µM)	> 100	0.78 (≈ 1.47 µM)	0.004 (≈ 0.00753 µM)	CO/N=C(\C(=O)N[C@@H]1C(=O)N2C(C(=O)[O-])=C(C[n+]3ccc4[nH]c(=O)[nH]c4c3)CS[C@H]12)c1nsc(N)n1 [Ex. 5, 7-β-[(Z)-2-(5-Amino-1,2,4-thiadiazol-3-yl)-2-methoxyiminoacetamido]-3-[2-(1H,3H)-oxo-imidazo[4,5-c]pyridiniummethyl]-3-cephem-4-carboxylate]	MIC (S.Faecalis ATCC29212): > 100 µg/mL; MIC (S.typhimurium C4045): 0.007 µg/mL (≈ 0.0132 µM); MIC (P.mirabilis ATCC25933): 0.025 µg/mL (≈ 0.047 µM); MIC (K.pneumoniae ATCC10031): 0.004 µg/mL (≈ 0.00753 µM); MIC (S.epidermidis ATCC12228): 0.78 µg/mL (≈ 1.47 µM); half-life [1]: 24 min
0.2 (≈ 0.347 µM)	3.13 (≈ 5.44 µM)	0.025 (≈ 0.0434 µM)	3.13 (≈ 5.44 µM)	0.782 (≈ 1.36 µM)	6.25 (≈ 10.9 µM)	0.013 (≈ 0.0226 µM)	1.56 (≈ 2.71 µM)	0.1 (≈ 0.174 µM)	0.78 (≈ 1.36 µM)	0.05 (≈ 0.0869 µM)	0.013 (≈ 0.0226 µM)	0.1 (≈ 0.174 µM)	3.13 (≈ 5.44 µM)	0.05 (≈ 0.0869 µM)	0.196 (≈ 0.341 µM)	3.13 (≈ 5.44 µM)	> 100	3.13 (≈ 5.44 µM)	0.013 (≈ 0.0226 µM)	Nc1nc(/C(=N/OCC(=O)O)C(=O)N[C@@H]2C(=O)N3C(C(=O)[O-])=C(C[n+]4ccc5[nH]c(=O)[nH]c5c4)CS[C@H]23)ns1 [Ex. 8, 7-β-[(Z)-2-(5-Amino-1,2,4-thiadiazol-3-yl)-2-carboxymethoxyiminoacetamido]-3-[2-(1H,3H)-oxo-imidazo[4,5-c]pyridiniummethyl]-3-cephem-4-carboxylate]	MIC (S.Faecalis ATCC29212): > 100 µg/mL; MIC (S.typhimurium C4045): 0.05 µg/mL (≈ 0.0869 µM); MIC (P.mirabilis ATCC25933): 0.05 µg/mL (≈ 0.0869 µM); MIC (K.pneumoniae ATCC10031): 0.013 µg/mL (≈ 0.0226 µM); MIC (S.epidermidis ATCC12228): 1.56 µg/mL (≈ 2.71 µM)
0.004 (≈ 0.00728 µM)	0.004 (≈ 0.00728 µM)	0.004 (≈ 0.00728 µM)	1.56 (≈ 2.84 µM)	1.56 (≈ 2.84 µM)	3.13 (≈ 5.7 µM)	0.013 (≈ 0.0237 µM)	3.13 (≈ 5.7 µM)	0.007 (≈ 0.0127 µM)	1.56 (≈ 2.84 µM)	0.004 (≈ 0.00728 µM)	0.013 (≈ 0.0237 µM)	0.007 (≈ 0.0127 µM)	0.78 (≈ 1.42 µM)	0.026 (≈ 0.0473 µM)	0.007 (≈ 0.0127 µM)	1.56 (≈ 2.84 µM)	> 100	0.78 (≈ 1.42 µM)	0.007 (≈ 0.0127 µM)	Nc1nc(/C(=N/OCF)C(=O)N[C@@H]2C(=O)N3C(C(=O)[O-])=C(C[n+]4ccc5[nH]c(=O)[nH]c5c4)CS[C@H]23)ns1 [Ex. 9, 7-β-[(Z)-2-(5-Amino-1,2,4-thiadiazol-3-yl)-2-fluoromethoxyiminoacetamido]-3-[2-(1H, 3H)-oxo-imidazo[4,5-c]pyridiniummethyl]-3-cephem-4-carboxylate]	MIC (S.Faecalis ATCC29212): > 100 µg/mL; MIC (S.typhimurium C4045): 0.007 µg/mL (≈ 0.0127 µM); MIC (P.mirabilis ATCC25933): 0.025 µg/mL (≈ 0.0455 µM); MIC (K.pneumoniae ATCC10031): 0.002 µg/mL (≈ 0.00364 µM); MIC (S.epidermidis ATCC12228): 0.78 µg/mL (≈ 1.42 µM)

From patent publication US5389627A, “Cephem compounds” (priority 1993, dated 1995)
